US11535593B2, “3-phosphoglycerate dehydrogenase inhibitors and uses thereof” (Raze Therapeutics, Inc., priority 2016, dated 2022)
Read-outs that look alike come from different tables or passages of the source.

Biological target: T1, Full length (FL) 3-Phosphoglycerate Dehydrogenase (PHGDH) (Homo sapiens, UniProt O43175)
T1 construct: Full length (FL) 3-Phosphoglycerate Dehydrogenase (PHGDH) Diaphorase coupled assay (500 uM NAD)
T1 sequence (O43175 1-533): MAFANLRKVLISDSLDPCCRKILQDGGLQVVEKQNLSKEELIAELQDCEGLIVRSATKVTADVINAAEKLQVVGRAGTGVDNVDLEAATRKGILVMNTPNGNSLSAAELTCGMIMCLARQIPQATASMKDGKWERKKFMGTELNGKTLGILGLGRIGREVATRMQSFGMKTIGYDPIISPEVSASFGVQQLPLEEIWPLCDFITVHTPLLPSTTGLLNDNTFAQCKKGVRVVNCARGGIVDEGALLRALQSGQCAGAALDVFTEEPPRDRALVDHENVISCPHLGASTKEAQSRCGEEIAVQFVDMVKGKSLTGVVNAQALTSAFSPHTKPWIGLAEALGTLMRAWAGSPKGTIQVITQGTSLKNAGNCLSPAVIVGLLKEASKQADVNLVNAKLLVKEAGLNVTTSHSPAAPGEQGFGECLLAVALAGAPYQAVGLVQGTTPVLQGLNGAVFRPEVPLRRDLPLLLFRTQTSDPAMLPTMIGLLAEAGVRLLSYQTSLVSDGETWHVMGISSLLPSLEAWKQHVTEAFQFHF
Experiment: Full length (FL) PHGDH Diaphorase coupled assay (500 uM NAD)
Assay type: biochemical
Method: Full length (FL) 3-Phosphoglycerate Dehydrogenase (PHGDH) Diaphorase coupled assay (500 uM NAD)
PHGDH activity was determined by detecting the NADH produced during the reaction. Diaphorase was used to catalyze the oxidation of NADH with the concomitant reduction of resazurin to the fluorescent product resorufin. Resorufin fluorescence quantitatively reflected the production of NADH by the PHGDH reaction. To drive the forward reaction, two enzymes in the serine synthesis pathway subsequent to PHGDH, Phosphoserine aminotransferase (PSAT1) and phosphoserine phosphatase (PSPH) were also added to the reaction.

Compound | IC50 (5 nM PHGDH, 30° C., 60 minutes) [µM] | IC50 (read-out: FL Diaphorase 500 μM NAD (PHGDH activity inhibition, IC50), 5 nM PHGDH, 30° C., 60 minutes) [µM]
Cn1c(C(=O)N[C@H](CO)c2ccc(C(C)(C)C(=O)O)cc2)cc2c(Cl)c(Cl)ccc21 [Compound I-1] | 0.01 to 1 | 
Cn1c(C(=O)N[C@H](CO)c2ccc(C(=O)O)cc2)cc2c(Cl)c(Cl)c(OCC(=O)NCCO)cc21 [Compound I-40, 4-[(1S)-1-[[4,5-Dichloro-6-[2-(2-hydroxyethylamino)-2-oxo-ethoxy]-1-methyl-indole-2-carbonyl]amino]-2-hydroxy-ethyl]benzoic Acid] | 0.01 to 1 | 
CC(NC(=O)c1cc2c(Cl)c(Cl)ccc2n1C)c1ccc(CC(=O)O)cc1F (stereo not drawn) [Compound I-31] | 0.01 to 1 | 
CC(C)C(C(=O)O)c1ccc([C@@H](CO)NC(=O)c2cc3c(Cl)c(Cl)ccc3n2C)cc1 (single isomer, unassigned) [Compound I-55, (2S or 2R)-2-[4-[(1S)-1-[(4,5-dichloro-1-methyl-indole-2-carbonyl)amino]-2-hydroxy-ethyl]phenyl]-3-methyl-butanoic acid] |  | 0.01 to 1
CC(NC(=O)c1cc2c(Cl)c(Cl)ccc2n1C)c1ccc(C(=O)O)cc1 (stereo not drawn) [Compound I-44] | 0.01 to 1 | 
CC(C)C(C(=O)O)c1ccc([C@@H](CO)NC(=O)c2cc3c(Cl)c(Cl)ccc3n2C)cc1 (single isomer, unassigned) [Compound I-54, (2R or 2S)-2-[4-[(1S)-1-[(4,5-dichloro-1-methyl-indole-2-carbonyl)amino]-2-hydroxy-ethyl]phenyl]-3-methyl-butanoic acid] | 0.01 to 1 | 
CC(NC(=O)c1cc2c(Cl)c(Cl)ccc2n1C)c1ccc(CC(=O)O)cc1 (racemic) [Compound I-34, (±)-2-(4-(1-(4,5-Dichloro-1-methyl-1H-indole-2-carboxamido)ethyl)phenyl) acetic Acid] | 0.01 to 1 | 
CC(C(=O)O)c1ccc([C@@H](CO)NC(=O)c2cc3c(Cl)c(Cl)ccc3n2C)cc1 (stereo partly drawn) [Compound I-14] | 0.01 to 1 | 
Cn1c(C(=O)NC(CF)c2ccc(C(=O)O)cc2)cc2c(Cl)c(Cl)ccc21 (stereo not drawn) [Compound I-6] | 0.01 to 1 | 
Cn1c(C(=O)NC(c2ccc(C(=O)O)cc2)C2CC2)cc2c(Cl)c(Cl)ccc21 (stereo not drawn) [Compound I-42] | 1 to 5 | 
Cn1c(C(=O)N[C@H](CO)c2ccc(CC(=O)O)cc2)cc2c(Cl)c(Cl)ccc21 [Compound I-29, 2-{4-[(1S)-1-[(4,5-dichloro-1-methyl-1H-indol-2-yl)formamido]-2-hydroxyethyl]phenyl}acetic acid] | 0.01 to 1 | 
CCC(C(=O)O)c1ccc([C@@H](CO)NC(=O)c2cc3c(Cl)c(Cl)ccc3n2C)cc1 (mixture of isomers) [Compound I-15, (±)-2-[4-[(1S)-1-[(4,5-dichloro-1-methyl-indole-2-carbonyl)amino]-2-hydroxy-ethyl]phenyl]butanoic Acid] | 0.01 to 1 | 
Cn1c(C(=O)NCc2ccc(C(=O)O)cc2)cc2c(Cl)c(Cl)ccc21 [Compound I-37] | 1 to 5 | 
Cn1c(C(=O)NC(CC2CC2)c2ccc(C(=O)O)cc2)cc2c(Cl)c(Cl)ccc21 (stereo not drawn) [Compound I-36] | 1 to 5 | 
Cn1c(C(=O)NC(C)(C)c2ccc(C(=O)O)cc2)cc2c(Cl)c(Cl)ccc21 [Compound I-35] | 1 to 5 | 

The next lines start with the values.

IC50 (5 nM PHGDH, 30° C., 60 minutes) [µM] | IC50 (read-out: FL Diaphorase 500 μM NAD (PHGDH activity inhibition, IC50), 5 nM PHGDH, 30° C., 60 minutes) [µM] | Compound
0.01 to 1 |  | COc1cc2c(cc(C(=O)N[C@H](CO)c3ccc(C(=O)O)cc3F)n2C)c(Cl)c1C [Compound I-12]
0.01 to 1 |  | CC(NC(=O)c1cc2c(Cl)c(Cl)ccc2n1C)c1ccc(C(=O)O)cc1Cl (stereo not drawn) [Compound I-33]
0.01 to 1 |  | COc1cc2c(cc(C(=O)N[C@H](CO)c3ccc(CC(=O)O)cc3F)n2C)c(Cl)c1C [Compound I-26]
0.01 to 1 |  | COc1cc2c(cc(C(=O)N[C@H](CO)c3ccc(C(=O)O)cc3Cl)n2C)c(Cl)c1C [Compound I-16, 3-chloro-4-[(1S)-1-[(4-chloro-6-methoxy-1,5-dimethyl-1H-indol-2-yl)formamido]-2-hydroxyethyl]benzoic acid]
0.01 to 1 |  | COc1cc2c(cc(C(=O)N[C@H](CO)c3ccc(CC(=O)O)cc3F)n2C)c(Cl)c1F [Compound I-24]
0.01 to 1 |  | COc1ccc2c(cc(C(=O)N[C@H](CO)c3ccc(C(=O)O)cc3C)n2C)c1Cl [Compound I-11]
0.01 to 1 |  | CC(NC(=O)c1cc2c(Cl)c(Cl)ccc2n1C)c1ccc(C(=O)O)cc1F (stereo not drawn) [Compound I-30]
0.01 to 1 |  | COc1ccc2c(cc(C(=O)N[C@H](CO)c3ccc(C(=O)O)cc3Cl)n2C)c1Cl [Compound I-21, 3-chloro-4-[(1S)-1-[(4-chloro-5-methoxy-1-methyl-1H-indol-2-yl)formamido]-2-hydroxyethyl]benzoic acid]
0.01 to 1 |  | COc1cc2c(cc(C(=O)N[C@H](CO)c3ccc(C(=O)O)cc3C)n2C)c(Cl)c1Cl [Compound I-7]
0.01 to 1 |  | COc1ccc2c(cc(C(=O)N[C@H](CO)c3ccc(CC(=O)O)cc3Cl)n2C)c1Cl [Compound I-9, 2-{3-chloro-4-[(1S)-1-[(4-chloro-5-methoxy-1-methyl-1H-indol-2-yl)formamido]-2-hydroxyethyl]phenyl}acetic acid]
0.01 to 1 |  | Cn1c(C(=O)N[C@H](CO)c2ccc(C(=O)O)cc2Cl)cc2c(Cl)c(Cl)ccc21 [Compound I-27, 3-chloro-4-[(1S)-1-[(4,5-dichloro-1-methyl-1H-indol-2-yl)formamido]-2-hydroxyethyl]benzoic acid]
0.01 to 1 |  | COc1ccc2c(cc(C(=O)N[C@H](CO)c3ccc(CC(=O)O)cc3)n2C)c1Cl [Compound I-23, 2-{4-[(1S)-1-[(4-chloro-5-methoxy-1-methyl-1H-indol-2-yl)formamido]-2-hydroxyethyl]phenyl}acetic acid]
0.01 to 1 |  | COc1cc2c(cc(C(=O)N[C@H](CO)c3ccc(C(=O)O)cc3C)n2C)c(Cl)c1C [Compound I-8]
0.01 to 1 |  | COc1cc2c(cc(C(=O)N[C@H](CO)c3ccc(C(=O)O)cc3F)n2C)c(Cl)c1Cl [Compound I-20]
0.01 to 1 |  | Cc1cc(C(=O)O)ccc1[C@@H](CO)NC(=O)c1cc2c(Cl)c(Cl)ccc2n1C [Compound I-18]
0.01 to 1 |  | COc1ccc2c(cc(C(=O)N[C@H](CO)c3ccc(C(C)(C)C(=O)O)cc3)n2C)c1Cl [Compound I-2]
0.01 to 1 |  | Cn1c(C(=O)N[C@H](CO)c2ccc(CC(=O)O)cc2Cl)cc2c(Cl)c(Cl)ccc21 [Compound I-10, 2-{3-chloro-4-[(1S)-1-[(4,5-dichloro-1-methyl-1H-indol-2-yl)formamido]-2-hydroxyethyl]phenyl}-acetic acid]
0.01 to 1 |  | CCC(C(=O)O)c1ccc([C@@H](CO)NC(=O)c2cc3c(Cl)c(OC)ccc3n2C)cc1 (mixture of isomers) [Compound I-5, (±)-2-[4-[(1S)-1-[(4-chloro-5-methoxy-1-methyl-indole-2-carbonyl)amino]-2-hydroxy-ethyl]phenyl]butanoic Acid]
0.01 to 1 |  | COc1cc2c(cc(C(=O)N[C@H](CO)c3ccc(CC(=O)O)cc3F)n2C)c(Cl)c1Cl [Compound I-28, 2-{4-[(1S)-1-[(4,5-dichloro-6-methoxy-1-methyl-1H-indol-2-yl)formamido]-2-hydroxyethyl]-3-fluorophenyl}acetic acid]
0.01 to 1 |  | COc1cc2c(cc(C(=O)N[C@H](CO)c3ccc(C(=O)O)cc3Cl)n2C)c(Cl)c1Cl [Compound I-17, 3-chloro-4-[(1S)-1-[(4,5-dichloro-6-methoxy-1-methyl-1H-indol-2-yl)formamido]-2-hydroxyethyl]benzoic acid]
0.01 to 1 |  | Cc1cc(CC(=O)O)ccc1[C@@H](CO)NC(=O)c1cc2c(Cl)c(Cl)ccc2n1C [Compound I-19]
